Results reported in patent publication US10940201B2, “Nucleic acid derivative having immunostimulatory activity” (Shionogi & Co., Ltd., priority 2015, dated 2021).

Assay: Subcutaneous irritation test in a single dose
Assay type: in vivo, rats
Settings: for Gross: Crust / Gross: White matter accumulation / Histopathological, Subcutaneous: Cyst-like structure / Histopathological, Subcutaneous tissue: Cyst-like structure / Gross: Dark red spots / Gross: Edema / Gross: Epidermis: Crust / Gross: Subcutaneous: White nudules / Histopathological, Subcutaneous: Cyst-like structure accompanied with formulation of fibrous capsule: number of the observed animals; for Histopathological, Dermis: Inflammatory cell infiltration / Histopathological, Subcutaneous: Granulomatous inflammation / Histopathological, Subcutaneous: Inflammatory cell infiltration / Histopathological, Subcutaneous: Edema / Histopathological, Muscle layer: Edema / Histopathological, Muscle layer: Inflammatory cell infiltration / Histopathological, Muscle layer: Necrosis / Histopathological, Subcutaneous tissue: Bleeding / Histopathological, Subcutaneous tissue: Edema / Histopathological, Subcutaneous tissue: Inflammatory cell infiltration / Histopathological, Subcutaneous tissue: Necrosis / Histopathological, Subcutaneous: Necrosis / Histopathological, Muscle layer: Monocyte infiltration / Histopathological, Subcutaneous: Granulomatous infiltration / Histopathological, Subcutaneous: Neutrophilic infiltration / Histopathological, Subcutaneous: Monocyte infiltration: total score of grades; for subcutaneous irritation findings four weeks after administration / subcutaneous irritation findings one day after administration / subcutaneous irritation findings one week after administration: rats, single subcutaneous dose; for Administration site, Gross: Subcutaneous: Red spots, Erythema / Administration site, Gross: Subcutaneous: White accumulation / Administration site, Histopathological: Subcutaneous: Cyst-like structure: number of the observed animals (of 3); for Number of deaths / Number of imminent dissections / Administration site, Histopathological: Muscle layer: Edema / Administration site, Histopathological: Muscle layer: Neutrophilic infiltration / Administration site, Histopathological: Subcutaneous: Bleeding / Administration site, Histopathological: Subcutaneous: Edema / Administration site, Histopathological: Subcutaneous: Neutrophilic infiltration: 3 animals; for Administration site, Histopathological: Muscle layer: Edema / Administration site, Histopathological: Muscle layer: Neutrophilic infiltration / Administration site, Histopathological: Subcutaneous: Bleeding / Administration site, Histopathological: Subcutaneous: Edema / Administration site, Histopathological: Subcutaneous: Neutrophilic infiltration: total score (Minimal 1, Mild 2, Moderate 3)
Method: Subcutaneous irritation of a compound of the present invention was evaluated by gross examination and histopathological examination about the skin at necropsy one day, one and four week(s) after subcutaneous administration in a single dose.
The compound of the present invention was subcutaneously administered to the center of back between the shoulder blades of rats. At necropsy one day, one or four week(s) after administration (isoflurane anesthesia, euthanasia by bleeding), skin at the administration site was collected, grossly observed and fixed in 10% neutral buffered formalin solution. The fixed skin was cut out, embedded and put in a thin slice by the usual methods, and Hematoxylin-eosin (HE) stained sections were made. The pathological observers were observed the HE stained sections by an optical microscope, and recorded the histopathological findings. The changes in pathological findings were evaluated in four grades of Minimal; ±, Mild; +, Moderate; 2+ and Marked; 3+. When any grade was not appropriate for the finding, it was recorded as Positive.
SEQ-2, SEQ-49 or an adjuvant of the present invention was dissolved in phosphate buffered saline and administered at 4.71, 15.7 or 47.1 nmol/1 mL/site, respectively.

[1] = four weeks after administration, 4.71 nmol/site
[2] = four weeks after administration, 15.7 nmol/site
[3] = four weeks after administration, 47.1 nmol/site
[4] = one day after administration, 4.71 nmol/site
[5] = one day after administration, 15.7 nmol/site
[6] = one day after administration, 47.1 nmol/site
[7] = one week after administration, 4.71 nmol/site
[8] = one week after administration, 15.7 nmol/site
[9] = one week after administration, 47.1 nmol/site

Amph1826 [SEQ-2]
Number of deaths/imminent dissections [1]: 0/0 | Gross: Crust [1]: 0 | Gross: White matter accumulation [1]: 0 | Histopathological, Subcutaneous: Cyst-like structure [1]: 0 | Histopathological, Dermis: Inflammatory cell infiltration [1]: 0 | Histopathological, Subcutaneous: Granulomatous inflammation [1]: 4 | Histopathological, Subcutaneous: Inflammatory cell infiltration [1]: 0 | Number of deaths/imminent dissections [2]: 0/0 | Gross: Crust [2]: 0 | Gross: White matter accumulation [2]: 0 | Histopathological, Subcutaneous: Cyst-like structure [2]: 0 | Histopathological, Dermis: Inflammatory cell infiltration [2]: 4 | Histopathological, Subcutaneous: Edema [2]: 0 | Histopathological, Subcutaneous: Granulomatous inflammation [2]: 5 | Histopathological, Subcutaneous: Inflammatory cell infiltration [2]: 0 | Number of deaths/imminent dissections [3]: 0/0 | Gross: Crust [3]: 0 | Gross: White matter accumulation [3]: 0 | Histopathological, Subcutaneous: Cyst-like structure [3]: 0 | Histopathological, Dermis: Inflammatory cell infiltration [3]: 7 | Histopathological, Subcutaneous: Edema [3]: 0 | Histopathological, Subcutaneous: Granulomatous inflammation [3]: 7 | Histopathological, Subcutaneous: Inflammatory cell infiltration [3]: 0 | Number of deaths/imminent dissections [4]: 0/0 | Histopathological, Subcutaneous tissue: Cyst-like structure [4]: 1 | Histopathological, Dermis: Inflammatory cell infiltration [4]: 5 | Histopathological, Muscle layer: Edema [4]: 1 | Histopathological, Muscle layer: Inflammatory cell infiltration [4]: 4 | Histopathological, Muscle layer: Necrosis [4]: 0 | Histopathological, Subcutaneous tissue: Bleeding [4]: 0 | Histopathological, Subcutaneous tissue: Edema [4]: 3 | Histopathological, Subcutaneous tissue: Inflammatory cell infiltration [4]: 7 | Histopathological, Subcutaneous tissue: Necrosis [4]: 1 | Number of deaths/imminent dissections [5]: 0/0 | Histopathological, Subcutaneous tissue: Cyst-like structure [5]: 2 | Histopathological, Dermis: Inflammatory cell infiltration [5]: 9 | Histopathological, Muscle layer: Edema [5]: 3 | Histopathological, Muscle layer: Inflammatory cell infiltration [5]: 7 | Histopathological, Muscle layer: Necrosis [5]: 0 | Histopathological, Subcutaneous tissue: Bleeding [5]: 3 | Histopathological, Subcutaneous tissue: Edema [5]: 5 | Histopathological, Subcutaneous tissue: Inflammatory cell infiltration [5]: 6 | Histopathological, Subcutaneous tissue: Necrosis [5]: 1 | Number of deaths/imminent dissections [6]: 0/0 | Histopathological, Subcutaneous tissue: Cyst-like structure [6]: 1 | Histopathological, Dermis: Inflammatory cell infiltration [6]: 6 | Histopathological, Muscle layer: Edema [6]: 4 | Histopathological, Muscle layer: Inflammatory cell infiltration [6]: 6 | Histopathological, Muscle layer: Necrosis [6]: 0 | Histopathological, Subcutaneous tissue: Bleeding [6]: 3 | Histopathological, Subcutaneous tissue: Edema [6]: 6 | Histopathological, Subcutaneous tissue: Inflammatory cell infiltration [6]: 6 | Histopathological, Subcutaneous tissue: Necrosis [6]: 1 | Number of deaths/imminent dissections [7]: 0/0 | Gross: Dark red spots [7]: 0 | Gross: Edema [7]: 0 | Gross: Epidermis: Crust [7]: 0 | Gross: White matter accumulation [7]: 0 | Histopathological, Subcutaneous: Cyst-like structure [7]: 1 | Histopathological, Dermis: Inflammatory cell infiltration [7]: 4 | Histopathological, Muscle layer: Inflammatory cell infiltration [7]: 0 | Histopathological, Subcutaneous: Edema [7]: 3 | Histopathological, Subcutaneous: Granulomatous inflammation [7]: 0 | Histopathological, Subcutaneous: Necrosis [7]: 0 | Number of deaths/imminent dissections [8]: 0/0 | Gross: Dark red spots [8]: 0 | Gross: Edema [8]: 1 | Gross: Epidermis: Crust [8]: 0 | Gross: White matter accumulation [8]: 0 | Histopathological, Subcutaneous: Cyst-like structure [8]: 1 | Histopathological, Dermis: Inflammatory cell infiltration [8]: 6 | Histopathological, Muscle layer: Inflammatory cell infiltration [8]: 4 | Histopathological, Subcutaneous: Edema [8]: 4 | Histopathological, Subcutaneous: Granulomatous inflammation [8]: 0 | Histopathological, Subcutaneous: Inflammatory cell infiltration [8]: 8 | Histopathological, Subcutaneous: Necrosis [8]: 0 | Number of deaths/imminent dissections [9]: 0/0 | Gross: Dark red spots [9]: 0 | Gross: Edema [9]: 1 | Gross: Epidermis: Crust [9]: 0 | Gross: White matter accumulation [9]: 0 | Histopathological, Subcutaneous: Cyst-like structure [9]: 3 | Histopathological, Dermis: Inflammatory cell infiltration [9]: 9 | Histopathological, Muscle layer: Inflammatory cell infiltration [9]: 6 | Histopathological, Subcutaneous: Edema [9]: 3 | Histopathological, Subcutaneous: Granulomatous inflammation [9]: 0 | Histopathological, Subcutaneous: Inflammatory cell infiltration [9]: 8 | Histopathological, Subcutaneous: Necrosis [9]: 0 | subcutaneous irritation findings four weeks after administration: skin inflammation was not recovered, and granulomatous inflammation by continuous activation of monocyte/macrophage system was observed | subcutaneous irritation findings one day after administration: inflammation cellular infiltration, edema and crust were observed | subcutaneous irritation findings one week after administration: inflammation cellular infiltration, edema and crust were observed

ODN2006 [SEQ-49]
Number of deaths/imminent dissections [1]: 0/0 | Gross: Subcutaneous: White nudules [1]: 0 | Histopathological, Subcutaneous: Cyst-like structure accompanied with formulation of fibrous capsule [1]: 0 | Histopathological, Muscle layer: Monocyte infiltration [1]: 0 | Histopathological, Subcutaneous: Edema [1]: 0 | Histopathological, Subcutaneous: Granulomatous infiltration [1]: 0 | Histopathological, Subcutaneous: Neutrophilic infiltration [1]: 0 | Number of deaths/imminent dissections [2]: 0/0 | Gross: Subcutaneous: White nudules [2]: 0 | Histopathological, Subcutaneous: Cyst-like structure accompanied with formulation of fibrous capsule [2]: 0 | Histopathological, Muscle layer: Monocyte infiltration [2]: 0 | Histopathological, Subcutaneous: Edema [2]: 0 | Histopathological, Subcutaneous: Granulomatous infiltration [2]: 0 | Histopathological, Subcutaneous: Neutrophilic infiltration [2]: 0 | Number of deaths/imminent dissections [3]: 0/0 | Gross: Subcutaneous: White nudules [3]: 0 | Histopathological, Subcutaneous: Cyst-like structure accompanied with formulation of fibrous capsule [3]: 0 | Histopathological, Muscle layer: Monocyte infiltration [3]: 0 | Histopathological, Subcutaneous: Edema [3]: 0 | Histopathological, Subcutaneous: Granulomatous infiltration [3]: 0 | Histopathological, Subcutaneous: Neutrophilic infiltration [3]: 0 | Administration site, Gross: Subcutaneous: Red spots, Erythema [4]: 0 | Administration site, Gross: Subcutaneous: White accumulation [4]: 0 | Administration site, Histopathological: Subcutaneous: Cyst-like structure [4]: 0 | Administration site, Gross: Subcutaneous: Red spots, Erythema [5]: 0 | Administration site, Gross: Subcutaneous: White accumulation [5]: 0 | Administration site, Histopathological: Subcutaneous: Cyst-like structure [5]: 0 | Administration site, Gross: Subcutaneous: Red spots, Erythema [6]: 1 | Administration site, Gross: Subcutaneous: White accumulation [6]: 0 | Administration site, Histopathological: Subcutaneous: Cyst-like structure [6]: 0 | Number of deaths [4]: 0/0 | Number of imminent dissections [4]: 0/0 | Number of deaths [5]: 0/0 | Number of imminent dissections [5]: 0/0 | Number of deaths [6]: 0/0 | Number of imminent dissections [6]: 0/0 | Number of deaths/imminent dissections [7]: 0/0 | Gross: Epidermis: Crust [7]: 1 | Gross: Subcutaneous: White nudules [7]: 0 | Histopathological, Subcutaneous: Cyst-like structure [7]: 0 | Histopathological, Subcutaneous: Edema [7]: 4 | Histopathological, Subcutaneous: Granulomatous inflammation [7]: 0 | Histopathological, Subcutaneous: Monocyte infiltration [7]: 3 | Histopathological, Subcutaneous: Necrosis [7]: 0 | Histopathological, Subcutaneous: Neutrophilic infiltration [7]: 0 | Number of deaths/imminent dissections [8]: 0/0 | Gross: Epidermis: Crust [8]: 1 | Gross: Subcutaneous: White nudules [8]: 0 | Histopathological, Subcutaneous: Cyst-like structure [8]: 0 | Histopathological, Subcutaneous: Edema [8]: 6 | Histopathological, Subcutaneous: Granulomatous inflammation [8]: 0 | Histopathological, Subcutaneous: Monocyte infiltration [8]: 6 | Histopathological, Subcutaneous: Necrosis [8]: 0 | Histopathological, Subcutaneous: Neutrophilic infiltration [8]: 0 | Number of deaths/imminent dissections [9]: 0/0 | Gross: Epidermis: Crust [9]: 0 | Gross: Subcutaneous: White nudules [9]: 0 | Histopathological, Subcutaneous: Cyst-like structure [9]: 0 | Histopathological, Subcutaneous: Edema [9]: 5 | Histopathological, Subcutaneous: Granulomatous inflammation [9]: 0 | Histopathological, Subcutaneous: Monocyte infiltration [9]: 8 | Histopathological, Subcutaneous: Necrosis [9]: 0 | Histopathological, Subcutaneous: Neutrophilic infiltration [9]: 0 | subcutaneous irritation findings four weeks after administration: inflammation was almost recovered | subcutaneous irritation findings one day after administration: acute inflammation, mainly neutrophil infiltration, was observed under the skin | subcutaneous irritation findings one week after administration: inflammation, mainly lymphocyte and macrophage, was observed from subcutaneous to dermis tissue | Administration site, Histopathological: Muscle layer: Edema [4]: 2 | Administration site, Histopathological: Muscle layer: Neutrophilic infiltration [4]: 4 | Administration site, Histopathological: Subcutaneous: Bleeding [4]: 2 | Administration site, Histopathological: Subcutaneous: Edema [4]: 4 | Administration site, Histopathological: Subcutaneous: Neutrophilic infiltration [4]: 6 | Administration site, Histopathological: Muscle layer: Edema [5]: 1 | Administration site, Histopathological: Muscle layer: Neutrophilic infiltration [5]: 6 | Administration site, Histopathological: Subcutaneous: Bleeding [5]: 1 | Administration site, Histopathological: Subcutaneous: Edema [5]: 5 | Administration site, Histopathological: Subcutaneous: Neutrophilic infiltration [5]: 6 | Administration site, Histopathological: Muscle layer: Edema [6]: 0 | Administration site, Histopathological: Muscle layer: Neutrophilic infiltration [6]: 5 | Administration site, Histopathological: Subcutaneous: Bleeding [6]: 2 | Administration site, Histopathological: Subcutaneous: Edema [6]: 5 | Administration site, Histopathological: Subcutaneous: Neutrophilic infiltration [6]: 6
